Assays:
Type in all cases: cell-based
Raji [1] = assay: Inhibition of TPA-induced EBV-early antigen activation in human Raji cells assessed as early antigen activation at 5000 mol ratio after 48 hrs relative to TPA; set-up: scale not given: the % may be the effect or the level left; conditions: human gammaherpesvirus 4
Raji [2] = assay: Inhibition of TPA-induced EBV-early antigen activation in human Raji cells assessed as early antigen activation at 1000 mol ratio after 48 hrs relative to TPA; set-up: scale not given: the % may be the effect or the level left; conditions: human gammaherpesvirus 4
Raji [3] = assay: Inhibition of TPA-induced EBV-early antigen activation in human Raji cells assessed as early antigen activation at 100 mol ratio after 48 hrs relative to TPA; conditions: human gammaherpesvirus 4
Raji [4] = assay: Inhibition of TPA-induced EBV-early antigen activation in human Raji cells assessed as early antigen activation at 10 mol ratio after 48 hrs relative to TPA; conditions: human gammaherpesvirus 4
Raji [5] = assay: Inhibition of EBV-early antigen activation in human Raji cells assessed as early antigen activation at 1 uM ratio after 48 hrs; set-up: scale not given: the % may be the effect or the level left
[6] = Cytotoxicity against human Raji cells assessed as cell viability at 5000 mol ratio after 48 hrs relative to TPA; conditions: read-out: Activity
[7] = Cytotoxicity against human Raji cells assessed as cell viability at 1000 mol ratio after 48 hrs relative to TPA; conditions: read-out: Activity
[8] = Cytotoxicity against human Raji cells assessed as cell viability at 100 mol ratio after 48 hrs relative to TPA; conditions: read-out: Activity
[9] = Cytotoxicity against human Raji cells assessed as cell viability at 10 mol ratio after 48 hrs relative to TPA; conditions: read-out: Activity

| SMILES | Activity (Raji [1]) | Activity (Raji [2]) | EBV early antigen activation relative to TPA (Raji [3]) | EBV-EA activation relative to TPA (Raji [4]) | Activity (Raji [5]) | viability at 48 h, 5000 mol ratio relative to TPA [6] | viability at 48 h, 1000 mol ratio relative to TPA [7] | viability at 48 h, 100 mol ratio relative to TPA [8] | viability at 48 h, 10 mol ratio relative to TPA [9] |
| --- | --- | --- | --- | --- | --- | --- | --- | --- | --- |
| C=C(C)[C@@H]1CC[C@]2(C(=O)O)CC[C@]3(C)[C@H](CC[C@@H]4[C@@]5(C)CC[C@H](OC(C)=O)C(C)(C)[C@@H]5CC[C@]43C)[C@@H]12 | 0% | 0% | 55.1% | 100% | 0% | 80% | 80% | 80% | 100% |
| CC1(C)CC[C@]2(C)CC[C@]3(C)C(=CC[C@@H]4[C@@]5(C)C(=O)CC(=O)C(C)(C)[C@@H]5CC[C@]43C)[C@@H]2C1 | 0% | 0% | 100% | 100% | 0% | 0% | 20% | 100% | 100% |
| CC(=O)O[C@H]1CC[C@]2(C)[C@H]3CC=C4[C@@H]5CC(C)(C)CC[C@]5(CO)CC[C@@]4(C)[C@]3(C)CC[C@H]2C1(C)C | 0% | 32.3% | 59.4% | 100% | 0% | 40% | 70% | > 80% | 100% |
| CC(=O)O[C@H]1CC[C@]2(C)[C@H]3CC=C4[C@@H]5CC(C)(C)CC[C@]5(C=O)CC[C@@]4(C)[C@]3(C)CC[C@H]2C1(C)C | 0% | 100% | 100% | 100% | 0% | 40% | 100% | 100% | 100% |
| CC(=O)OC[C@]12CCC(C)(C)C[C@H]1C1=CC[C@@H]3[C@@]4(C)CC[C@H](OC(C)=O)C(C)(C)[C@@H]4CC[C@@]3(C)[C@]1(C)CC2 | 0% | 100% | 100% | 100% | 0% | 50% | 100% | 100% | 100% |
| CC(=O)O[C@@H]1C[C@]2(C)[C@H]3CC=C4[C@@H]5CC(C)(C)CC[C@]5(C(=O)O)CC[C@@]4(C)[C@]3(C)CC[C@H]2C(C)(C)[C@H]1OC(C)=O | 0% | 0% | 59.6% | 100% | 0% | 0% | 20% | 70% | 100% |
| CC(=O)O[C@H]1CC[C@]2(C)[C@H]3CC=C4[C@@H]5CC(C)(C)CC[C@]5(C(=O)O)CC[C@@]4(C)[C@]3(C)CC[C@H]2C1(C)C [ACETYL OLEANOLIC ACID] | 0% | 36.4% | 100% | 100% | 1.6% | 50% | 80% | 100% | 100% |
| C=C(C)[C@@H]1CC[C@]2(C(=O)O)CC[C@]3(C)[C@H](CC[C@@H]4[C@@]5(C)CC[C@H](O)C(C)(C)[C@@H]5CC[C@]43C)[C@@H]12 [BETULINIC ACID] | 0% | 80% | 100% | – | 0% | 20% | > 80% | 100% | 100% |

Reference: ChEMBL document CHEMBL1150740, “Studies on inhibitors of skin-tumor promotion, I. Inhibitory effects of triterpenes from Euptelea polyandra on Epstein-Barr virus activation” (J Nat Prod, 1987)
